# Measurements as given in patent US12617799B2, “Pyrazolopyrimidinone compounds” (Orphagen Pharmaceuticals, Inc., priority 2021, dated 2026).
# Where two headings read alike, the source gives them in different places.
# What was measured:
# human SF-1 = biological target: T1, human SF-1 (Homo sapiens, UniProt Q13285); assay: SF-1 Luc assay (Gal4DBD-SF-1LBD luciferase reporter in transfected CHO-K1 cells); format: cell-based; details: CHO-K1 cells transfected with GAL4-SF-1 plasmid, 40 hours incubation; read-out: hSF-1-Luc: EC50
# T1 construct: expressed in transfected cells; host or cells: CHO-K1 cells (Chinese hamster ovary), transient cotransfection with pG5luc
# Description: BamHI and XbaI sites introduced by the primers […] (forward) and […] (reverse) were used for subcloning the amplicon into pFA-CMV.
# Cells were routinely cultured by splitting them from 1:10 to 1:20. […] Four hours after transfection, cells were trypsinized and suspended to a concentration of 1.6×10^5 cells/ml in supplemented Ham's F-12 media.
# Assays: The collected cells were resuspended in the culture medium and plated into a 384 well-white plate (Corning Life Sciences, Acton, MA) at 8,000 cells/50 μL/well.
# Measurement of SF-1 Transcriptional Activity: SF-1 transcriptional activity was detected as the intracellular Luc activity using SteadyLite Plus HTS Reporter Gene Assay System. After the measurement of the cell viability, the culture media in the 384 well-plate were completely removed. Then, 30 μL of the Luc substrate solution was added into each well and incubated for 10 min at room temperature. After the incubation, luminescence of each well was measured by a microplate reader.
# Calculation of the SF-1 Transcriptional Activity (% of Control): The % of control for the transcriptional activity was calculated according to the following equation: % of control=A/B×100 Equation • A: luminescence count in the test article-treated CHO cells transfected with GAL4-SF-1 plasmid • B: mean luminescence count in the vehicle-treated CHO cells transfected with GAL4-SF-1 plasmid
# [1] = system: rat Leydig tumor cell line R2C; assay: R2C proliferation assay for SF-1 antagonists (EdU incorporation); format: cell-based; details: read-out: R2C: EC50
# Method: SF-1 regulates progenitor cell formation and survival in adult Leydig cells. Anti-proliferative effects of SF-1 antagonists using a SF-1+ rat Leydig tumor cell line, R2C, was investigated. Cell proliferation was measured by detecting DNA incorporation of EdU, a nucleoside analogue that can be fluorescently tagged after cell fixation.
# Proliferation of the rat Leydig tumor cell line R2C (ATCC® CCL-97™) was assessed using 5-ethynyl-2′-deoxyuridine (EdU), a nucleoside analogue incorporated during DNA synthesis that can be fluorescently tagged after cell fixation. Cycloheximide, a protein synthesis inhibitor, was used as a positive control for the assay.
# R2C cells are maintained according to a protocol provided by the American Type Culture Collection (ATCC). At the time of assay, R2C cells were diluted to 1.0 million cells/mL with culture medium (F12 medium supplemented with 2% FBS and 1% Penicillin-Streptomycin) and 50 uL of cell suspension seeded into each well of 384-well clear bottom plates. The assay plates were incubated in a humidified, 37° C., 6% CO2 atmosphere for 24 hours. Serially diluted SF-1 antagonists, cycloheximide or vehicle (DMSO) were then applied to the R2C cells and incubated in a humidified, 37° C., 6% CO2 atmosphere for two days. EdU (Invitrogen), at a final concentration of 5 μM, was added to the cells and incubated for an additional 16 hours, after which cells were fixed with 10% formalin.
# Cells were then washed and permeabilized in 0.5% TritonX-100/PBS solution at RT for 1 hour. EdU incorporation was detected by labeling EdU with 6-FAM azide (Lumiprobe) using a copper (I)-catalyzed Click reaction between an azide and alkyne. The reaction mixture consists of 5 mM ascorbic acid, 1 mM CuSO4, 1 μM 6-FAM azide dissolved in PBS buffer. […] For data normalization, the average fluorescence of DMSO wells was defined as 100%, and average fluorescence of 10 μM cycloheximide wells was defined as 0%. Curve fitting and EC50 determination were performed using the variable slope sigmoidal dose-response analysis.
# R2C cells were routinely cultured in R2C culture medium. To assay SF-1 antagonist inhibitory activity, R2C cells were resuspended in the R2C plating medium and plated into a 384 well-clear bottom black plate at 20,000 cells/50 μL/well. […] 10 μL EdU plating solution were then dispensed into each well of assay plate incubated at 37° C., 6% CO2 for two days.
# R2C proliferation is measured by detecting the fluorescent labelled EdU. The R2C assay plates were fixed by dispense 60 μL of 10% formalin into each well, and the plates were incubated at room temperature for 1 hour on an orbital shaker. The plates were washed with 80 μL of PBS three times, and cells were permeabilized by treating with 100 μL of PBS-0.5% TritonX-100 at RT for 1 hour on an orbital shaker. The plates were washed with 80 μL of PBS three times, and after the last wash, 25 μL of PBS was dispensed into each well. 25 μL of 2× mounting mix solution was then added into each well of fixed cells, and the plates were incubated at RT for 30 min in the dark on an orbital shaker. The cells were washed with 80 μL of PBS, three times, and after the last wash, 25 μL of PBS was dispensed into each well. […] The cells were washed with 80 μL of PBS, three times, and after the last wash, 50 μL of PBS was dispensed into each well. Assay plates were sealed with aluminum foil, and fluorescence was measured using a Envision microplate reader.
# The % of control for the proliferation activity was calculated according to the following equation: % of control=100×(A−C)/(B−C) Equation • A: fluorescence count in the test article-treated R2C cells • B: mean fluorescence count in the vehicle-treated R2C cells • C: mean fluorescence count in the 10 μM cycloheximide-treated R2C cells
# T1 sequence (Q13285 198-461 limits assumed): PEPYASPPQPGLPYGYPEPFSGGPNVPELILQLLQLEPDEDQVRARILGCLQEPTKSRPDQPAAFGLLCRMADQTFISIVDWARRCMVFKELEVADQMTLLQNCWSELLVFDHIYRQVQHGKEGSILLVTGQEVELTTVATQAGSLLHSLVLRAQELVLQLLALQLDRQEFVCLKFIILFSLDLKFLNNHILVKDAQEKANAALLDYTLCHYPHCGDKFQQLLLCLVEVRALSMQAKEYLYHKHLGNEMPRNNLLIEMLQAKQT
SMILES,EC50 (human SF-1) [nM],"EC50 ([1]; R2C cells, EdU incorporation) [nM]",EC50 ([1]; R2C) [nM]
"C[C@H](O)CO[C@H]1CC[C@H](NC(=O)Cn2cnc3c(Nc4ccc(C(F)(F)F)cc4)nn(C)c3c2=O)CC1 [Compound 22, N-((1S,4r)-4-((S)-2-hydroxypropoxy)cyclohexyl)-2-(1-methyl-7-oxo-3-((4-(trifluoromethyl)phenyl)amino)-1,7-dihydro-6H-pyrazolo[4,3-d]pyrimidin-6-yl)acetamide]",< 200,< 200,–
"Cn1nc(Nc2ccc(C(F)(F)F)cc2)c2ncn(CC(=O)N[C@H]3CC[C@H](OC(F)F)CC3)c(=O)c21 [Compound 32, N-((1r,4r)-4-(difluoromethoxy)cyclohexyl)-2-(1-methyl-7-oxo-3-((4-(trifluoromethyl)phenyl)amino)-1,7-dihydro-6H-pyrazolo[4,3-d]pyrimidin-6-yl)acetamide]",< 200,–,< 200
"COc1ccc(NC(=O)Cn2cnc3c(Nc4ccc(C(F)(F)F)cc4)nn(C(C)C)c3c2=O)cc1F [Compound 98, N-(3-fluoro-4-methoxyphenyl)-2-(1-isopropyl-7-oxo-3-((4-(trifluoromethyl)phenyl)amino)-1,7-dihydro-6H-pyrazolo[4,3-d]pyrimidin-6-yl)acetamide]",200 to 1000,–,1000 to 10000
"CCn1nc(Nc2ccc(C(F)(F)F)cc2)c2ncn(CC(=O)N[C@H]3CC[C@H](OCC(C)(C)O)CC3)c(=O)c21 [Compound 84, 2-(1-ethyl-7-oxo-3-((4-(trifluoromethyl)phenyl)amino)-1,7-dihydro-6H-pyrazolo[4,3-d]pyrimidin-6-yl)-N-((1r,4r)-4-(2-hydroxy-2-methylpropoxy)cyclohexyl)acetamide]",< 200,–,< 200
"CC(C)(O)CO[C@H]1CC[C@H](NC(=O)Cn2cnc3c(Nc4ccc(C(F)(F)F)cc4)nn(CC(F)(F)F)c3c2=O)CC1 [Compound 92, N-((1r,4r)-4-(2-hydroxy-2-methylpropoxy)cyclohexyl)-2-(7-oxo-1-(2,2,2-trifluoroethyl)-3-((4-(trifluoromethyl)phenyl)amino)-1,7-dihydro-6H-pyrazolo[4,3-d]pyrimidin-6-yl)acetamide]",200 to 1000,–,200 to 1000
"Cn1nc(Nc2ccc(C(F)(F)F)cc2)c2ncn(CC(=O)N[C@@H]3CCC[C@H](OC(F)F)C3)c(=O)c21 (single isomer, unassigned) [Compound 49]",< 200,–,< 200
"CCn1nc(Nc2ccc(C(F)(F)F)cc2)c2ncn(CC(=O)N[C@H]3CC[C@H](OC(F)F)CC3)c(=O)c21 [Compound 80, N-((1r,4r)-4-(difluoromethoxy)cyclohexyl)-2-(1-ethyl-7-oxo-3-((4-(trifluoromethyl)phenyl)amino)-1,7-dihydro-6H-pyrazolo[4,3-d]pyrimidin-6-yl)acetamide]",< 200,–,< 200

# Further lines, with some results ahead:
EC50 (human SF-1) [nM],"EC50 ([1]; R2C cells, EdU incorporation) [nM]",SMILES,EC50 ([1]; R2C) [nM]
< 200,< 200,"COc1ccc(NC(=O)Cn2cnc3c(Nc4ccc(C(F)(F)F)cc4)nn(C)c3c2=O)cc1F [Compound 11, N-(3-fluoro-4-methoxyphenyl)-2-(1-methyl-7-oxo-3-((4-(trifluoromethyl)phenyl)amino)-1,7-dihydro-6H-pyrazolo[4,3-d]pyrimidin-6-yl)acetamide]",–
200 to 1000,200 to 1000,"Cn1nc(Nc2ccc(C(F)(F)F)cc2)c2ncn(CC(=O)Nc3ccc(C(C)(C)C(=O)O)cc3)c(=O)c21 [Compound 19, 2-methyl-2-(4-(2-(1-methyl-7-oxo-3-((4-(trifluoromethyl)phenyl)amino)-1,7-dihydro-6H-pyrazolo[4,3-d]pyrimidin-6-yl)acetamido)phenyl)propanoic acid]",–
200 to 1000,1000 to 10000,"C[C@@H](NC(=O)Cn1cnc2c(Nc3ccc(C(F)(F)F)cc3)nn(C)c2c1=O)C1CCOCC1 [Compound 16, (R)-2-(1-methyl-7-oxo-3-((4-(trifluoromethyl)phenyl)amino)-1,7-dihydro-6H-pyrazolo[4,3-d]pyrimidin-6-yl)-N-(1-(tetrahydro-2H-pyran-4-yl)ethyl)acetamide]",–
< 200,< 200,"Cn1nc(Nc2ccc(C(F)(F)F)cc2)c2ncn(CC(=O)N[C@H]3CC[C@H](OCC4CCOCC4)CC3)c(=O)c21 [Compound 39, 2-(1-methyl-7-oxo-3-((4-(trifluoromethyl)phenyl)amino)-1,7-dihydro-6H-pyrazolo[4,3-d]pyrimidin-6-yl)-N-((1r,4r)-4-((tetrahydro-2H-pyran-4-yl)methoxy)cyclohexyl)acetamide]",–
< 200,< 200,"C[C@@H](O)CO[C@H]1CC[C@H](NC(=O)Cn2cnc3c(Nc4ccc(C(F)(F)F)cc4)nn(C)c3c2=O)CC1 [Compound 23, N-((1R,4r)-4-((R)-2-hydroxypropoxy)cyclohexyl)-2-(1-methyl-7-oxo-3-((4-(trifluoromethyl)phenyl)amino)-1,7-dihydro-6H-pyrazolo[4,3-d]pyrimidin-6-yl)acetamide]",–
< 200,< 200,"Cn1nc(Nc2ccc(C(F)(F)F)cc2)c2ncn(CC(=O)Nc3ccc(C(C)(C)C(N)=O)cc3)c(=O)c21 [Compound 21, 2-methyl-2-(4-(2-(1-methyl-7-oxo-3-((4-(trifluoromethyl)phenyl)amino)-1,7-dihydro-6H-pyrazolo[4,3-d]pyrimidin-6-yl)acetamido)phenyl)propanamide]",–
< 200,< 200,"Cn1nc(Nc2ccc(C(F)(F)F)cc2)c2ncn(CC(=O)N[C@H]3CC[C@H](OCC(C)(C)O)CC3)c(=O)c21 [Compound 24, N-((trans)-4-(2-hydroxy-2-methylpropoxy)cyclohexyl)-2-(1-methyl-7-oxo-3-((4-(trifluoromethyl)phenyl)amino)-1,7-dihydro-6H-pyrazolo[4,3-d]pyrimidin-6-yl)acetamide]",–
200 to 1000,1000 to 10000,"Cn1nc(Nc2ccc(C(F)(F)F)cn2)c2ncn(CC(=O)N[C@H]3CC[C@H](OC(F)F)CC3)c(=O)c21 [Compound 55, N-((1r,4r)-4-(difluoromethoxy)cyclohexyl)-2-(1-methyl-7-oxo-3-((5-(trifluoromethyl)pyridin-2-yl)amino)-1,7-dihydro-6H-pyrazolo[4,3-d]pyrimidin-6-yl)acetamide]",–
< 200,200 to 1000,"C[C@H](NC(=O)Cn1cnc2c(Nc3ccc(C(F)(F)F)cc3)nn(C)c2c1=O)C1CCOCC1 [Compound 17, (S)-2-(1-methyl-7-oxo-3-((4-(trifluoromethyl)phenyl)amino)-1,7-dihydro-6H-pyrazolo[4,3-d]pyrimidin-6-yl)-N-(1-(tetrahydro-2H-pyran-4-yl)ethyl)acetamide]",–
